Tests used:
Assay in all cases: Test E preemergence
Conditions in all cases: scale 0 to 100
lambsquarters = format: in vivo, Chenopodium album
Description: (§1) Seeds of plant species selected from corn (Zea mays), soybean (Glycine max), lambsquarters (Chenopodium album), poinsettia, wild (wild poinsettia, Euphorbia heterophylla), pigweed, palmer (palmer pigweed, Amaranthus palmeri), waterhemp (common waterhemp, Amaranthus rudis), surinam grass (Brachiaria decumbens), crabgrass, large (large crabgrass, Digitaria sanguinalis), crabgrass, Brazilian (Brazilian crabgrass, Digitaria horizontalis), panicum, fall (fall panicum, Panicum dichotomiflorum), foxtail, giant (giant foxtail, Setaria faberii), foxtail, green (green foxtail, Setaria viridis), goosegrass (Eleusine indica), johnsongrass (Sorghum halepense), ragweed (common ragweed, Ambrosia elatior), barnyardgrass (Echinochloa crus-galli), sandbur (southern sandbur, Cenchrus echinatus), arrowleaf sida (Sida rhombifolia), ryegrass, Italian (Italian ryegrass, Lolium multiflorum), dayflower, VA (Virginia dayflower, Commelina virginica), field bindweed (Convolvulus arvensis), cocklebur (common cocklebur, Xanthium strumarium), morningglory (Ipomoea coccinea), nightshade (eastern black nightshade, Solanum ptycanthum), kochia (Kochia scoparia), nutsedge, yellow (yellow nutsedge, Cyperus esculentus), smartweed (ladysthumb smartweed, Polygonum persicaria), velvetleaf (Abutilon theophrasti), horseweed (Conyza canadensis), and beggarticks (hairy beggarticks, Bidens pilosa), were planted into a silt loam soil and treated preemergence with test chemicals formulated in a non-phytotoxic solvent mixture which included a surfactant.
(§2) At the same time, plants from these crop and weed species and also waterhemp_RES1, (ALS & Triazine resistant common waterhemp, Amaranthus rudis), and waterhemp_RES2, (ALS & HPPD resistant common waterhemp, Amaranthus rudis) were planted in pots containing Sunshine Redi-Earth® planting medium comprising spaghnum peat moss, vermiculite, starter nutrients and dolomitic limestone were treated with postemergence applications of test chemicals formulated in the same manner. Plants ranged in height from 2 to 18 cm for postemergence treatments (1- to 4-leaf stage). Treated plants and controls were maintained in a greenhouse for 14 to 21 d, after which time all species were compared to controls and visually evaluated. Plant response ratings, summarized in Table E, are based on a scale of 0 to 100 where 0 is no effect and 100 is complete control. A dash (-) response means no test result.

nightshade = format: in vivo, Solanum ptycanthum
Description: as §1, §2

dayflower, VA = format: in vivo, Commelina virginica
Description: as §1, §2

ragweed = format: in vivo, Ambrosia elatior
Description: as §1, §2

pigweed, palmer = format: in vivo, Amaranthus palmeri
Description: as §1, §2

kochia = format: in vivo, Kochia scoparia
Description: as §1, §2

goosegrass = format: in vivo, Eleusine indica
Description: as §1, §2

field bindweed = format: in vivo, Convolvulus arvensis
Description: as §1, §2

foxtail, green = format: in vivo, Setaria viridis
Description: as §1, §2

poinsettia, wild = format: in vivo, Euphorbia heterophylla
Description: as §1, §2

sandbur = format: in vivo, Cenchrus echinatus
Description: as §1, §2

CCCc1nc(-c2ccc(F)cc2)nn1Cc1ccnc(C(F)(F)F)c1 [Compound 6, 4-[[3-(4-fluorophenyl)-5-propyl-1H-1,2,4-triazol-1-yl]methyl]-2-(trifluoromethyl)pyridine] gave a Plant response rating (lambsquarters; 31 g ai/ha) of 70, a Plant response rating (lambsquarters; 62 g ai/ha) of 100 and a Plant response rating (lambsquarters; 125 g ai/ha) of 100. It also gave a Plant response rating (lambsquarters; 250 g ai/ha) of 100, a Plant response rating (nightshade; 16 g ai/ha) of 15 and a Plant response rating (nightshade; 31 g ai/ha) of 70. It also gave a Plant response rating (nightshade; 62 g ai/ha) of 90, a Plant response rating (nightshade; 125 g ai/ha) of 100 and a Plant response rating (nightshade; 250 g ai/ha) of 100. For the same compound, the Plant response rating (dayflower, VA; 16 g ai/ha) was 10, the Plant response rating (dayflower, VA; 31 g ai/ha) was 60 and the Plant response rating (dayflower, VA; 62 g ai/ha) was 70. The Plant response rating (dayflower, VA; 125 g ai/ha) was 80, the Plant response rating (dayflower, VA; 250 g ai/ha) was 90 and the Plant response rating (ragweed; 16 g ai/ha) was 10. It also gave a Plant response rating (ragweed; 31 g ai/ha) of 20, a Plant response rating (ragweed; 62 g ai/ha) of 20 and a Plant response rating (ragweed; 125 g ai/ha) of 50. It also gave a Plant response rating (ragweed; 250 g ai/ha) of 90, a Plant response rating (pigweed, palmer; 16 g ai/ha) of 50 and a Plant response rating (pigweed, palmer; 31 g ai/ha) of 75. For the same compound, the Plant response rating (pigweed, palmer; 62 g ai/ha) was 90, the Plant response rating (pigweed, palmer; 125 g ai/ha) was 100 and the Plant response rating (pigweed, palmer; 250 g ai/ha) was 100. It also gave a Plant response rating (kochia; 16 g ai/ha) of 60, a Plant response rating (kochia; 31 g ai/ha) of 80 and a Plant response rating (kochia; 62 g ai/ha) of 80. The Plant response rating (kochia; 125 g ai/ha) was 85, the Plant response rating (kochia; 250 g ai/ha) was 100 and the Plant response rating (goosegrass; 16 g ai/ha) was 15. For the same compound, the Plant response rating (goosegrass; 31 g ai/ha) was 50, the Plant response rating (goosegrass; 62 g ai/ha) was 50 and the Plant response rating (goosegrass; 125 g ai/ha) was 75. For the same compound, the Plant response rating (goosegrass; 250 g ai/ha) was 100, the Plant response rating (field bindweed; 16 g ai/ha) was 10 and the Plant response rating (field bindweed; 31 g ai/ha) was 10. The Plant response rating (field bindweed; 62 g ai/ha) was 30, the Plant response rating (field bindweed; 125 g ai/ha) was 50 and the Plant response rating (field bindweed; 250 g ai/ha) was 70. It also gave a Plant response rating (foxtail, green; 62 g ai/ha) of 70, a Plant response rating (foxtail, green; 125 g ai/ha) of 80 and a Plant response rating (foxtail, green; 250 g ai/ha) of 100. The Plant response rating (poinsettia, wild; 16 g ai/ha) was 15, the Plant response rating (poinsettia, wild; 31 g ai/ha) was 30 and the Plant response rating (poinsettia, wild; 62 g ai/ha) was 50. For the same compound, the Plant response rating (poinsettia, wild; 125 g ai/ha) was 50, the Plant response rating (poinsettia, wild; 250 g ai/ha) was 95 and the Plant response rating (sandbur; 16 g ai/ha) was 10. It also gave a Plant response rating (sandbur; 31 g ai/ha) of 40, a Plant response rating (sandbur; 62 g ai/ha) of 50 and a Plant response rating (sandbur; 125 g ai/ha) of 70. The Plant response rating (sandbur; 250 g ai/ha) was 80.
In the case of CCOc1nc(-c2ccc(F)cc2)nn1Cc1ccnc(C(F)(F)F)c1 [Compound 8, 4-[[5-ethoxy-3-(4-fluorophenyl)-1H-1,2,4-triazol-1-yl]methyl]-2-(trifluoromethyl)pyridine], the Plant response rating (lambsquarters; 62 g ai/ha) is reported as 100, the Plant response rating (lambsquarters; 125 g ai/ha) is reported as 100 and the Plant response rating (nightshade; 62 g ai/ha) is reported as 98. It also gave a Plant response rating (nightshade; 125 g ai/ha) of 100, a Plant response rating (dayflower, VA; 62 g ai/ha) of 65 and a Plant response rating (dayflower, VA; 125 g ai/ha) of 95. It also gave a Plant response rating (ragweed; 62 g ai/ha) of 80, a Plant response rating (ragweed; 125 g ai/ha) of 90 and a Plant response rating (pigweed, palmer; 62 g ai/ha) of 100. It also gave a Plant response rating (pigweed, palmer; 125 g ai/ha) of 100, a Plant response rating (kochia; 62 g ai/ha) of 100 and a Plant response rating (kochia; 125 g ai/ha) of 100. It also gave a Plant response rating (goosegrass; 62 g ai/ha) of 100, a Plant response rating (goosegrass; 125 g ai/ha) of 100 and a Plant response rating (field bindweed; 62 g ai/ha) of 70. The Plant response rating (field bindweed; 125 g ai/ha) was 95, the Plant response rating (foxtail, green; 62 g ai/ha) was 100 and the Plant response rating (foxtail, green; 125 g ai/ha) was 100. It also gave a Plant response rating (poinsettia, wild; 62 g ai/ha) of 70, a Plant response rating (poinsettia, wild; 125 g ai/ha) of 95 and a Plant response rating (sandbur; 62 g ai/ha) of 60. For the same compound, the Plant response rating (sandbur; 125 g ai/ha) was 98.

Reference: patent US10681909B2, “Herbicidal triazoles” (FMC Corporation, priority 2014, dated 2020)
